In US11504399B2, “Combination therapy for a stable and long term engraftment using specific protocols for T/B cell depletion” (Yeda Research and Development Co. Ltd., priority 2011, dated 2022):
Like-named read-outs stand apart in the source and are kept apart here.

Columns and labels:
[1] = test system: C3H/Hen recipient mice with Balb/c and C57BL/6 skin grafts
Description: Donor (Balb/c) and 3rd party (C57BL/6) skin grafts were transplanted to the mixed chimeric recipients as described above [i.e. to those mice which were previously transplanted with mega dose (25×10^6) T cell depleted BM and were treated with high dose CY] and to the recipient mice that were inoculated with a regular (5×10^6) T cell depleted BM cell dose and were treated with high dose CY.
Tolerance induction was measured by transplantation of donor (Balb/c) and 3rd party (C57BL/6) skin grafts to the mixed chimeric recipients that were transplanted with mega dose (25×10^6) T cell depleted BM and were treated with high dose CY (as described above), in comparison to the recipients that were inoculated with a regular (5×10^6) T cell depleted BM cell dose (as described above).

[2] = test system: allogeneic recipients (C3H/Hen) of Balb/c-Nude BM cells; conditions: for donor type chimerism expressed: regular dose 5×10^6 T cell depleted BM, TCD, monohydrate
From the text: Mice used in these studies were 6-12 week old female mice. Balb/c-Nude (H-2d) and C3H/Hen (H-2k) were purchased from Harlan Israel (Rehovot, Israel). All mice were kept in small cages (5 animals in each cage) and fed sterile food and acid water. These studies were approved by the Weizmann Institute of Science, Institutional Animal Care and Use Committee.
(§1) Low (5×10^6) and high dose (25×10^6) Balb/c-Nude BM cells (providing a source of BM depleted of T cells) were transplanted into allogeneic recipients (C3H/Hen) on day 0 following in-vivo T cell debulking (TCD) with anti-CD4 (clone GK1.5) and anti-CD8 (clone 53.6.72) antibodies (300 μg each; Bio X Cell, NH, USA) delivered on day −6, and exposure to 2.0 Gy total body irradiation (TBI) on day −1. High dose Cyclophosphamide (CY, 100 mg/kg, Baxter Oncology, Germany) was administered on days +3 and +4 post transplant and donor type chimerism was evaluated 35 and 95 days post transplant using fluorescein anti-host and donor H-2 antibodies (e.g. FlTC labeled anti-H-2D^d antibody specific for donor type cells and PE labeled anti-H-2K^k antibody specific for host type cells).
Recipient mice (C3H/Hen) were treated with a conditioning protocol prior to transplantation of a T cell depleted bone marrow transplant. Specifically, mice were in-vivo treated with T cell debulking (TCD) using anti-CD4 and anti-CD8 antibodies delivered on day −6 and by exposure to 2.0 Gy total body irradiation (TBI) on day −1. Next, low (5×10^6) or high dose (25×10^6) Balb/c-Nude BM cells (providing a source of BM depleted of T cells, as Nude mice have miniscule numbers of mature T cells) were transplanted into allogeneic recipients (C3H/Hen) on day 0. High dose cyclophosphamide (CY, 100 mg/kg) was administered on days +3 and +4 post transplant. Evaluation of bone marrow cell engraftment was evaluated by donor type chimerism at 35 and 95 days post transplant.
as §1, with “High” for “Low (5×10^6) and high”, “different doses of irradiation ranging from 1 to 3.5” for “2.0”, “TBI” for “total body irradiation (TBI)”, “30” for “35 and 95”
High dose Cyclophosphamide (CY) was administered on days +3 and +4 post transplant and donor type chimerism was evaluated at 30 days post transplant.
as §1, with “High dose” for “Low (5×10^6) and high dose”, “−1. Different doses of” for “−1. High dose”, “mg/kg, 125 mg/kg or 150 mg/kg,” for “mg/kg,”, “Germany) were” for “Germany) was”, “evaluated 30” for “evaluated 35 and 95”

## O.O=P1(N(CCCl)CCCl)NCCCO1 (stereo not drawn) [CY, 2-[bis(2-chloroethyl)amino]tetrahydro-2H-1,3,2-oxazaphosphorine 2-oxide monohydrate]
[1]; 5×10^6 T cell depleted BM cells and CY
  skin graft outcome: rejected both the donor and 3rd party skin grafts
[1]; 25×10^6 T cell depleted BM, high dose CY days +3 and +4
  chimeric mice that accepted the donor graft and rejected the 3rd party skin grafts: three out of 4
[2]; 5×10^6 T cell depleted BM and CY, 180 and 225 days post transplant
  mixed chimerism: did not exhibit mixed chimerism
[2]; 25×10^6 BM, 1.0 Gy TBI, CY 100 mg/kg days +3 and +4, 30 days post transplant (5/6)
  percentage of chimeric mice: 83%
[2]; 25×10^6 BM, 2 Gy TBI, CY 100 mg/kg days +3 and +4, 30 days post transplant (13/15)
  percentage of chimeric mice: 87%
[2]; 25×10^6 BM, 2.5, 3 or 3.5 Gy TBI, CY 100 mg/kg days +3 and +4, 30 days post transplant
  chimeric recipient mice: 6/6
[2]; 25×10^6 CD8 depleted vs non-depleted Balb/c-Nude BM, 2 Gy TBI, CY 100 mg/kg days +3 and +4, 30 days
  effect of depletion of CD8+ cells from the BM preparation on level of chimerism: did not have any adverse impact
[2]; 25×10^6 T cell depleted BM and CY, follow-up 180 and 225 days post transplant
  number of donor type chimeric recipients and level of donor chimerism: remained unchanged
[2]; 25×10^6 T cell depleted BM, TCD day −6, 2 Gy TBI day −1, CY 100 mg/kg days +3 and +4, day 35 and day 95
  mice with durable mix chimerism: 4 out of 7
[2]; CY 125 mg/kg or 150 mg/kg compared to 100 mg/kg, 25×10^6 BM, 2 Gy TBI, 30 days
  effect of increasing CY dose on chimerism: did not provide a significant enhancement of chimerism
[2]; 2 Gy TBI, CY 100 mg/kg days +3 and +4, day 35 and day 95, listed as cyclophosphamide
  donor type chimerism expressed: none
[2]; 2 Gy TBI, CY 100 mg/kg days +3 and +4, day 35 and day 95
  donor type chimerism expressed: did not exhibit donor type chimerism
